Measured values: patent US9629828B2, “Methods of treating traveler's diarrhea and hepatic encephalopathy” (priority 2008, dated 2017)
Several values for one entry are separate records, joined by “and”; a condition that tells them apart may be missing. Equal entries are not always repeated.

Columns and labels:
[1] = molecular target: T1, cytochrome P450 2C19 (Homo sapiens, UniProt P33261); assay: In vitro cytochrome P450 inhibition; type: in vitro ADME; conditions: 2 to 200 ng/mL
T1 construct: from tissue; host or cells: human liver fractions
T1 sequence (P33261 whole entry): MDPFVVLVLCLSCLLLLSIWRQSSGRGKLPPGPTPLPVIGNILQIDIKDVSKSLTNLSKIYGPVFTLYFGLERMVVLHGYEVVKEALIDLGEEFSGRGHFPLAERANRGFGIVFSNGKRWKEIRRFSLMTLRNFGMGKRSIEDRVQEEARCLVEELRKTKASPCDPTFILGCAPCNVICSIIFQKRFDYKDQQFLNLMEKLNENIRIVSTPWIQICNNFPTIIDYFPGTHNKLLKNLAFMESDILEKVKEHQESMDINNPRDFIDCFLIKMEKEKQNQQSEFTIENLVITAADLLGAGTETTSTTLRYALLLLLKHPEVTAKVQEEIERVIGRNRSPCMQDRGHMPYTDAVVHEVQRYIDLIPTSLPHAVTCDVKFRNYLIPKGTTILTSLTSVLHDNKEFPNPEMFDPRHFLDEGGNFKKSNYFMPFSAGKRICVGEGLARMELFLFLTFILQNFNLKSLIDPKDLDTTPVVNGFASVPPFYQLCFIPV

[2] = tested on: subjects in remission from hepatic encephalopathy (HE); assay: First study (3001): time to first breakthrough overt HE episode, rifaximin 550 mg BID vs placebo, 6 months; type: in vivo, human
Description: Study 3001 was designed to continuously monitor patients to ensure the validity and completeness of HE breakthrough capture. Following screening, subjects entered a treatment period that included weekly visits and/or phone calls with patients and caregivers. Subjects were followed for the protocol specified 168 days. Complete capture of breakthrough events as well as mortality and provided assurance of the validity of the study outcome. Narratives for each subject experiencing HE breakthrough, AE's resulting in termination, SAEs or death were provided in the NDA.
Eligible subjects had 2 episodes of HE associated with chronic liver disease in the previous 6 months.
Patients had MELD scores of either […] (27%) or 11 to 18 (64%) at baseline. No patients were enrolled with a MELD score of >25. Nine percent of the patients were Child-Pugh Class C. Lactulose was concomitantly used by 91% of the patients in each treatment arm of the study. Per the study protocol, patients were withdrawn from the study after experiencing a breakthrough HE episode.
The primary endpoint was the time to first breakthrough overt HE episode. A breakthrough overt HE episode was defined as a marked deterioration in neurological function and an increase of Conn score to Grade ≧2. In patients with a baseline Conn score of 0, a breakthrough overt HE episode was defined as an increase in Conn score of 1 and asterixis grade of 1.
An efficacy endpoint was the time to first breakthrough overt HE episode. A breakthrough overt HE episode was defined as an increase of Conn score to Grade ≧2 (e.g., 0 or 1 to ≧2) or an increase in Conn and asterixis score of 1 grade each for those subjects who entered the study with a Conn score of 0. Time to breakthrough overt HE episode was the duration from time of first dose of study drug to the first breakthrough overt HE episode. […] Subjects who terminated early for reasons other than breakthrough overt HE were contacted at 6 months from randomization to determine if subjects had experienced a breakthrough overt HE episode or other outcome (e.g., mortality status); and, if the subject had no breakthrough overt HE event prior to contact, he/she was censored at the time of contact. […] Subjects in the study had ≧2 episodes of overt HE equivalent to Conn score ≧2 within 6 months prior to screening (i.e., subjects had documented recurrent, overt HE). At the baseline assessment, subjects were in remission with a Conn score of 0 or 1. A breakthrough overt HE episode, as defined above, was a marked deterioration in neurological function.
Presented herein are the results of the first study and second study. […] The primary efficacy endpoint was the time to breakthrough overt HE. Breakthrough overt HE was defined as an increase of Conn score to Grade ≧2 (e.g., 0 or 1 to ≧2) or an increase in Conn and asterixis score of 1 grade each for those subjects who entered the study with a Conn score of 0. Subjects discontinued from the study at the time of breakthrough overt HE episode. After participation in the first study, subjects had the option to enroll in the open-label, treatment-extension study (the second study).
FIG. 1 illustrates Kaplan-Meier estimates of time to first breakthrough overt HE episode by treatment group in the ITT population. Table 18 presents Kaplan-Meier estimates of the proportions of subjects who experienced breakthrough overt HE over the course of the Treatment Period and results of statistical analyses. […] Subjects who terminated early for reasons other than breakthrough overt HE (e.g., liver transplant, AE, subject request) were contacted at 6 months from date of randomization to determine if subjects had experienced a breakthrough overt HE episode or other outcome (e.g., mortality status). Subjects without breakthrough overt HE were censored at the time of contact or death, whichever was earlier.

[3] = Post approval adverse reactions; type: in vivo, human; conditions: post approval use
Description: Because these reactions are reported voluntarily from a population of unknown size, estimates of frequency cannot be made.

[4] = tested on: subjects with a history of recurrent, overt, episodic HE; assay: Second study: changes in Conn scores and asterixis grades; type: in vivo, human
Description: Normalizing for subject exposure, this represents a hospitalization rate of 0.60 event/PEY. A total of 59 were hospitalized due HE episodes (e.g., HE-caused). Normalizing for subject exposure, this represents an HE-caused hospitalization rate of 0.29 event/PEY. […] All subjects were capable of worsening over time, and 24/266 subjects (9.0%) did so by 1 or 2 grades.
The last visit for the second study is the last visit recorded for the interim analysis.
A total of 65.5% of subjects (220 of 337) had no change in Conn score and 21.1% (71 of 337) had improvements in Conn score from baseline to last visit. […] No change from baseline in asterixis grade was reported for 75.2% of subjects (252 of 337), and 17.3% had improvements.

[5] = tested on: subjects in remission from hepatic encephalopathy (HE); assay: First study: HE-related, HE-caused and all-cause hospitalization; type: in vivo, human
[6] = tested on: Tg.rasH2 mice; conditions: Tg.rasH2, mouse, in vivo, 26 weeks
[7] = tested on: subjects with a history of recurrent, overt, episodic HE; assay: Second study: changes in Conn scores and asterixis grades; type: in vivo, human; conditions: 266 subjects
[8] = all rifaximin experience, 337 subjects

## CO[C@H]1/C=C/O[C@@]2(C)Oc3c(C)c(O)c4c(O)c(c5c(nc6cc(C)ccn65)c4c3C2=O)NC(=O)/C(C)=C\C=C\[C@H](C)[C@H](O)[C@@H](C)[C@@H](O)[C@@H](C)[C@H](OC(C)=O)[C@@H]1C [rifaximin, (2S,16Z,18E,20S,21S,22R,23R,24R,25 S,26S,27S,28E)-5,6,21,23,25-pentahydroxy-27-methoxy-2,4,11,16,20,22,24,26-octamethyl-2,7-(epoxypentadeca-[1,11,13]trienimino)benzofuro[4,5-e]pyrido[1,2-á]-benzimidazole-1,15(2H)-dione,25-acetate]
[1]
  inhibition of 2C19: did not inhibit
[2]; 550 mg BID
  reduction in risk of breakthrough overt HE vs placebo, adjusted for prognostic factors: 60%
[2]; 550 mg BID, 6-month treatment
  reduction in risk of breakthrough overt HE vs placebo: 58% and 57.9%
[2]; 550 mg BID, 6 months
  subjects with breakthrough overt HE episodes: 22%
[2]; 550 mg BID, up to Day 170
  subjects with breakthrough overt HE episodes: 31 of 140
[2]; N = 140; days: r10 [0-28), r11 [28-56), r12 [56-84), r13 [84-140), r14 [140-168), r15 >=168
  Survival: 1.0000 and 0.9071 and 0.8783 and 0.8344 and 0.7820 and 0.7740
[2]; North America versus Russia
  time to first breakthrough overt HE by region: highly significant protective effect
[2]; by Baseline MELD Score Level, N = 11, days r10-r15 as E1301
  Survival: 1.0000 and 0.9091 and 0.6364
[2]; by Baseline MELD Score Level, N = 85, days r10-r15 as E1201
  Survival: 1.0000 and 0.9059 and 0.8822 and 0.8459 and 0.7713 and 0.7580
[2]; by Prior Lactulose Use, N = 123, days r10-r15 as E801
  Survival: 1.0000 and 0.9024 and 0.8696 and 0.8278 and 0.7678 and 0.7586
[2]; by Prior Lactulose Use, N = 127, days r11-r21 as E1401
  Survival: 1.0000 and 0.9055 and 0.8737 and 0.8252 and 0.7754 and 0.7666
[2]; component of breakthrough HE
  patients experiencing a Conn Score of >=2: 20%
  patients with worsening of Conn and asterixis grade of 1 each: 2%
[2]; first study rifaximin group
  rate of breakthrough HE episodes adjusted for exposure: 0.62 events/PEY
[2]; in vivo
  patients with zero events over 6 months: 78%
  time to breakthrough HE events vs placebo (FIG. 2): increased time to breakthrough HE events
[3]
  C. difficile-associated colitis: have been reported
[4]; 67 subjects
  subjects improved among those entering with asterixis scores of 1, 2, or 3: 64.2%
  subjects with 1-grade asterixis improvement: 50.7%
  subjects with 2-grade asterixis improvement: 6.0%
  subjects with 3-grade asterixis improvement: 7.5%
[4]; 70 subjects
  subjects with worsening asterixis, continuing rifaximin: 8.6%
[4]; 84 subjects
  subjects improved among those entering with Conn scores of 1, 2, or 3: 64.3%
  subjects with 1-grade Conn improvement: 56.0%
  subjects with 2-grade Conn improvement: 8.3%
[4]; 99 subjects
  subjects improved in asterixis grade among those entering with grade ≧1: 58.6%
[4]; 118 subjects
  subjects improved to Conn score 0 among those entering with Conn ≧1: 62.2%
[4]; 196 subjects
  subjects with worsening asterixis, new rifaximin: 6.1%
[4]; 266 subjects
  subjects with Conn worsening by 1 or 2 grades: 9.0%
  subjects with improvements in Conn scores at last visit: 20.3%
  subjects with improvements in asterixis scores: 16.2%
  subjects with mental status maintained or improved: 91%
  subjects with neuromotor symptoms maintained: 83.3%
  subjects with no change in Conn score at last visit: 70.7%
  subjects with no change in asterixis at last visit: 77.1%
[4]; all rifaximin experience
  subjects with improvements in asterixis grade: 17.3%
  subjects with maintenance or improvements in asterixis grades: > 90%
[4]; [8]
  subjects with improvements in Conn score: 21.1%
  subjects with no change in Conn score: 65.5%
  subjects with no change in asterixis grade: 75.2%
[4]; all rifaximin experience, up to 840 days
  subjects with maintenance or improvement in Conn scores: > 85%
[5]
  all-cause hospitalization rate: 0.92 events/PEY and 0.90 events/PEY
[6]
  female mice with ruffled fur and hunched appearance: 2/25
[7]
  subjects with worsening asterixis by 1, 2, or 4 grades: 6.8%
